# Experimental data: patent US20030190370A1, “Antibacterial agents, and antibacterial and deodorizing solution comprising the same” (priority 2000, published 2003)
# Experiments:
# [1] = Investigation of discoloration resistance (UV exposure, judged by eye); type: physicochemical; settings: in tap water, complexes diluted to 2% (10-40 ppm silver ion), silver compounds 40 ppm, UV 2 hr
# [2] = test system: (Candida Albicans ATCC 11651); assay: Minimum growth inhibition concentration, test-tube dilution method; type: cell-based
# Procedure: (§1) The minimum growth inhibition concentration was measured using test-tube dilution method in order to evaluate the antibacterial activity of the silver complexes obtained in Examples 1-5.
# [3] = test system: E. coli (Escherichia coli ATCC 25922); assay: as above; type: cell-based; settings: E. coli ATCC 25922
# Procedure: as §1
# [4] = test system: E. coli O-157 (Escherichia coli ATCC 43895); assay: as above; type: cell-based; settings: E. coli O-157 ATCC 43895
# Procedure: as §1
# [5] = test system: Staphylococcus aureus ATCC 25923; assay: as above; type: cell-based
# Procedure: as §1
# [6] = test system: Staphylococcus aureus ATCC 6538P; assay: as above; type: cell-based
# Procedure: as §1
# [7] = test system: Trichophyton rubrum ATCC 28188; assay: as above; type: cell-based
# Procedure: as §1
# [8] = test system: Yeast (Trentopholia odorata); assay: as above; type: cell-based
# Procedure: as §1
Compound,Discoloration [1],Minimum Growth Inhibition Concentration [2],Minimum Growth Inhibition Concentration [3],Minimum Growth Inhibition Concentration [4],Minimum Growth Inhibition Concentration [5],Minimum Growth Inhibition Concentration [6],Minimum Growth Inhibition Concentration [7],Minimum Growth Inhibition Concentration [8]
"O=[N+]([O-])[O-].[Ag+] [Silver nitrate solution, silver nitrate, reference compound]",1,,,,,,,
Silver-diethanolamine Complex [Example 5],3,1 ppm,1 ppm,3 ppm,6 ppm,7 ppm,2 ppm,<1 ppm
Silver-triethanolamine Complex [Example 4],3,1 ppm,1 ppm,3 ppm,5 ppm,5 ppm,2 ppm,<1 ppm
"O=C([O-])c1ccccc1.[Ag+] [Silver benzoate solution, silver beiizoate, reference compound]",1,,,,,,,
